The source of these data is patent US6346406B1, “Elongation factor-2 kinase (EF-2 kinase), and methods of use therefor” (University of Medicine & Dentistry of New Jersey, priority 1997, dated 2002).

Test [1] has as its system recombinant human eEF-2 kinase. Briefly: eEF-2 kinase activity assay: phosphorylation of rabbit reticulocyte eEF-2 with [γ-32P]ATP, SDS/PAGE and autoradiography. As to conditions: kinase expressed in coupled transcription/translation system, assayed without further purification; 20 μM antagonist is printed in the FIG. 3 legend for panel C. Type of test: biochemical. The procedure:
FIG. 3. Activity of recombinant eEF-2 kinase in vitro. A large scale (0.5 ml) reaction using a mixture of Cefk-1 and Cefk-2 plasmids was run as in FIG. 2, with the omission of labeled methionine. In the control experiment, the reaction was run with a plasmid containing a luciferase gene. (A) The reaction mixtures were separated by chromatography on a Mono Q column as described. (B) eEF-2 kinase activity in fractions was measured as the ability to phosphorylate purified rabbit eEF-2 in the presence of [γ-^32 P]ATP. Purified rabbit reticulocyte eEF-2 kinase was used in the (+) control experiments. (C) Ca^2+/calmodulin-dependency of recombinant C. elegans eEF-2 kinase. Mono Q fraction 25 was assayed in a standard eEF-2 kinase assay in the presence and absence of Ca^2+ and calmodulin and 20 μM trifluoperazine (TFP) or N-(6 aminohexyl)-5-chloro-1-napthalene-sulfonamide (W7). (D) Ca^2+/calmodulin-dependency of recombinant human eEF-2 kinase. […]
To assay for eEF-2 kinase activity, 5 μl from each fraction was added to a reaction mixture (40 μl) containing 50 mM Hepes-KOH (ph. 7.4) 10 mM magnesium acetate, 0.1 mM CaCl2, 5 mM dithiothreitol, 50 μM ATP, 2 μCi [γ-^32P]ATP, 0.6 μg calmodulin, and 0.5 μg rabbit reticulocyte eEF-2. […] Phosphoproteins were analyzed by autoradiography. […]

Another test concerns the target T1, recombinant eEF-2 kinase (Homo sapiens, UniProt O00418).
T1 construct: one of GST (pGEX-2T), 6xHis (pRSET A) or thioredoxin (pThioHisB); made in house; host or cells: Escherichia coli BL21(DE3)
Put plainly: eEF-2 kinase activity assay using a 16-amino acid peptide derived from myosin heavy chain as the phosphorylation target. Type of test: biochemical. As to conditions: [γ-33P]ATP, 30° C., phosphocellulose paper, scintillation counting. The procedure: FIG. 8. Assay for eEF-2 kinase activity. Recombinant eEF-2 kinase (2 μg) was incubated with increasing concentrations of a peptide phosphorylation target (RKKGESEKTKTKEFL) in a buffer consisting of 12.5 mM Hepes-KOH (pH 7.4), 2.5 mM magnesium acetate, 1.25 mM DTT, 25 μM CaCl2, 0.5 μg calmodulin, 100 μM ATP, and 0.5 μCi [γ-^33P]ATP in a total volume of 50 μl. Samples were incubated at 30° C. and aliquots were withdrawn at various time points, and the reaction was terminated by incubation in an ice water bath. The aliquots were then spotted onto phosphocellulose paper (2 cm×2 cm) and washed (4×4 min) with 75 mM phosphoric acid. The papers were then rinsed with 100% ethanol, dried, and then counted in a scintillation counter.
Human eEF-2 kinase cDNA was cloned into three different expression vectors: pGEX-2T (Pharmacia Biotech, Piscataway, N.J.); pRSET A (Invitrogen, Sorrento Valley, Calif.); and, pThioHisB (Invitrogen). After transformation into Escherichia coli strain BL21(DE3), transformants were cultured in LB broth containing 50 μg/ml ampicillin. When the cultured reached an A600 value of 0.7, isopropyl-β-thiogalactopyranoside (IPTG) was added to the bacterial cultures to a final concentration of […] to induce expression. […] The refolded protein was analyzed by SDS-PAGE and assayed for the ability to phosphorylate eEF-2. […]

As to `NCCCCCCNS(=O)(=O)c1cccc2c(Cl)cccc12` [N-(6-aminohexyl)-5-chloro-1-napthalene-sulfonamide], the “inhibition of recombinant human eEF-2 kinase activity by calmodulin antagonists” value in test [1] was “completely inhibited”.

Turning to `CN1CCN(CCCN2c3ccccc3Sc3ccc(C(F)(F)F)cc32)CC1` [trifluoperazine], the “inhibition of recombinant human eEF-2 kinase activity by calmodulin antagonists” value in test [1] is reported as “completely inhibited”.

For “RKKFGESEKTKTKEFL [16-mer peptide based on the phosphorylation site of Dictyostelium discoideum MHC, substrate for eEF-2 kinase]”, the “ability to serve as substrate (phosphoacceptor) for eEF-2 kinase” value in the test with recombinant eEF-2 kinase is “good substrate”.
